This is an account of results in patent US9642897B2, “Treatment of bone diseases” (THE UNIVERSITY OF SYDNEY, priority 2011, dated 2017).

Entries after “also recorded” stand apart in the source; their conditions may differ.

For test [1], the system named is mesenchymal stem cells (MSC). In words: Mineralization (alizarin red staining) of osteogenic differentiating MSC. The following applies: MSC in OIM, 2 weeks. Type of test: cell-based, human. As to the method: Human mesenchymal stem cells (MSC) (BioWhittaker, Walkersville, Md., USA) were plated at a density of 5×10^5 cells per well in 150 cm^2 dishes containing MSC growth medium (GM) (BioWhittaker, Walkersville, Md., USA) with 10% fetal calf serum (FCS) and incubated at 37° C. After the cells reached 60% confluence, media was replaced with either GM or osteoblastogenesis induction media (OIM) (prepared with MSCGM, 10% FCS, […] dexamethasone, 10 mmol/L β glycerol phosphate and 50 μg/mL ascorbic acid) for 21 days. Media was changed every three days. Media obtained at the beginning of the 1st, 2nd and 3rd wk of differentiation as well as conditioned media were collected for measurement of IFNγ. Concentrations of IFNγ in the conditioned media were measured from both GM and OM treated cells using Human […] DuoSet ELISA Development Kit (R&D Systems, Minneapolis, Mich., USA). To compare between the osteogenic and the immune effect of IFNγ, Jurkat cells and human T lymphocytes were plated at a density of 5×10^5 cells per well in 150 cm^2 dishes containing RPMI media.
Subsequently, the effect of chemical inhibition/stimulation of the intermediate and end products of kynurenine activation on osteogenic differentiating MSC was then characterised.
These compounds were added to the MSC media on day one of differentiation. Cells were treated for […]. Media was changed every three days. After three weeks of treatment, osteoblastogenesis and changes in osteogenic genes were quantified as described above.

In test [2] the test system is Runx2 and OCN. In words: RT-PCR of Runx2 and OCN in bone marrow cells of PA-treated mice. Type of test: in vivo, C57BL/6 mice. Particulars: all PA-treated groups vs vehicle. As to the method:
Bone marrow cells were flushed and isolated as previously described. Total RNA was extracted from marrow cells using a QIAGEN RNeasy Mini extraction kit following manufacturer's instructions (QIAGEN Pty, Doncaster, VIC, Australia; cat#74104). First strand complementary DNA (cDNA) synthesis was performed using 200 ng of total RNA, 50 ng random hexamers and 50 units reverse transcriptase at 42° C. for 1 hour, as described by manufacturer (Bioline Australia Pty, Alexandria, NSW, Australia; cat# BIO-65025). Real-time PCR for expressed genes as markers for osteogenesis was performed in duplicate in a total reaction volume of 25 μl, 10% of which was cDNA (or water for non-template control), 3 mM MgCl2 and 250 nM of each forward and reverse specific primer for target genes and normalizer. Primers for specific detection of mRNA expression included: […]
All PCRs were performed in a Corbett Rotor-Gene™ 3000 (QIAGEN Pty) using SYBR green with no-ROX reaction mix and a standard thermal profile as described by supplier (Bioline Australia Pty, Alexandria, NSW, Australia; cat# QT6750-02). Quantitative RT-PCR data was defined by threshold cycle (Ct) normalized for the housekeeping gene glyceraldehyde-3-phosphate dehydrogenase (GAPDH): […]

Test [3] has as its system Runx2 and OCN. In words: Western blot of Runx2 and OCN in bone marrow cells of PA-treated mice. Type of test: in vivo, C57BL/6 mice. On the procedure: Marrow cells were obtained from the left femur of PA- and vehicle-treated animals (n=6 per group) by flushing with Dulbecco's alpha modified medium (DMEM). Red blood cells in marrow cells were hemolyzed in 0.017 M tris-HCl, pH 7.5, buffer containing 0.8% ammonium chloride. Hemolyzed bone marrow suspensions were rinsed twice with phosphate buffered saline (PBS). Protein extracts were obtained after suspending the cells in 2 volumes of buffer containing 10 mM EDTA, 0.5 mM phenylmethylsulfonyl fluoride, and one Complete™ protease inhibitor mixture tablet (Boehringer Mannheim, Laval, Quebec, Canada). […] Protein content was determined with a protein assay kit (Bio-Rad. Mississauga, Ontario), and samples were then aliquoted and stored at −80° C. […] Antigen-antibody complexes were detected by chemiluminescence using a kit of reagents from ECL (Amersham, UK) and blots were exposed to high-performance chemiluminescence film (Amersham, UK). Films were scanned and the optical density of each specific band analysed using the ImageMaster program and expressed as OD/mm2/100 μg of total protein. Relative intensity of the samples was determined comparing the protein of interest in the treated mice using the values of vehicle-treated mice as controls (100%). […]
(In general: Immunoblotting shows a protein as a band on a membrane.)

Test [4] deals with bone marrow stromal cells (BMSC) from IDO-1 KO and WT mice. Nature of the test: Osteogenic differentiation of BMSC from IDO-1 KO and WT mice (alizarin red). Type of test: cell-based. The following applies: vs vehicle. As to the method: One side tibiae from 9-month-old IDO-1^−/− and IDO-1^+/+ mice (n=6 per group) were flushed using a 21-gauge needle attached to a 10 ml syringe filled with Dulbecco's modified Eagle's medium (DME) (GIBCO BRL, Gaithersburg, Md., USA). The bone marrow cells were filtered through a cell strainer with a 70-micron nylon mesh (BD Bioscience, Bedford, Mass., USA) and plated in 10 cm^2 tissue culture dishes. The cells were incubated in growth medium at 37° C. with 5% humidified CO2 and isolated by their adherence to tissue culture plastic. Medium was aspirated and replaced with fresh medium every 2 to 3 days to remove non-adherent cells. The adherent MSC were grown to confluency for about 7 days and defined as MSC at passage 0, harvested with 0.25% trypsin and 1 mM EDTA for 5 min at 37° C., diluted 1:3 in growth medium, plated and grown to confluency for further expansion. After 2nd and 3rd passages, MSC were used for subsequent experiments.
To induce differentiation, a total of 10^4 cells were diluted in osteogenic medium and plated in 24 dishes per group in the presence or absence of either quinolinic or picolinic acid. Media was aspirated and replaced with fresh osteogenic medium every 3 days. At 21 days, medium was removed and cultures were fixed in 10% v/v formol/saline solution for 5 min. Cultures were stained with Alizarin Red, which was then extracted and quantified at 570 nm.

Consider `O=C(O)c1ccccn1` [PA, pyridine-2-carboxylic acid], for which the “osteoblastogenesis / mineralisation (alizarin red)” value in test [1] is “accelerated mineralisation; also recorded: stimulate osteoblastogenesis”. Also, in the test with Runx2 and OCN [2], the “mRNA levels of osteogenic genes Runx2 and OCN” value is listed as “higher levels”. Besides, the “protein expression of OCN and Runx2 (immunoblot)” value with Runx2 and OCN [3] is on record as “significant increase”. In addition, the “mineralisation (alizarin red staining)” value in test [4] is “higher levels of mineralisation”.
